Experiment [1] deals with T1, beta-amyloid 1-42 oligomer (20% biotin) (Homo sapiens, UniProt P05067).
T1 construct: 12 μg beta-amyloid 1-42 oligomer (20% biotin); purchased Bachem H-5642; host or cells: synthetic peptide
Briefly: Scintillation proximity assay (SPA), direct/saturation binding of tritium labeled probe to soluble oligomers. For orientation: SPA uses beads or plates that emit light when radiolabelled molecules are held near them.
Protocol: To prepare soluble oligomer, the film was dissolved in appropriate amount of dry DMSO (Sigma), and Ham's F12 media (Biosource) or PBS (Sigma, D8537) was added and incubated at 4° C. for 24 hours (final concentration of 200 uM or 0.9 mg/mL beta-amyloid in 2% DMSO). The tube containing the soluble oligomers was centrifuged at 13,000 rpm for 5 mins, and its supernatant was transferred to a clean tube.
For SPA and atomic force microscopy (AFM) experiments, preparations of soluble oligomers and fibrils contained 20% biotinylated beta-amyloid 1-42 and 1-40, respectively (H-5642, H-5914, Bachem).
For the saturation-binding assay, isotopic dilution of radiolabeled 49b with unlabeled 49b was performed. ^3H-49b was added to 500 uM of unlabeled 49b to a final concentration of 50 μCi/mL ^3H-49b. The probe solution was then serially diluted in PBS to give six solutions giving 6.6, 13.1, 26.3, 52.5, 105, or 210 uM in the final assay well. Each concentration of the probe solution was incubated with 12 μg beta-amyloid 1-42 oligomer (20% biotin) or 1-40 (20% biotin) fibrils in a total volume of 90 μl. Assays were incubated at room temp for 2 hrs before addition of 10 μL YSi-streptavidin (0.25 mg) SPA bead. Assays were set-up in triplicate in 96-well NBS plates (Costar). Assays were incubated overnight and counted the following morning. […] Assay conditions were the same as described in saturation binding assay.
A direct binding assay using tritium labeled 49b was performed against oligomers or fibrils by scintillation proximity assay (SPA). Beta-amyloid containing 20% biotin and tritiated 49b were incubated in solution for two hours prior to addition of the Ysi-Streptavidin beads.

Experiment [2] concerns the target T1, beta-amyloid 1-42 oligomer (20% biotin). Briefly: SPA competition binding assay against 3H-49b on soluble oligomers. To be noted: 50 uM unlabeled competitor, 130 nM 3H-49b. The procedure: Lyophilized Streptavidin-Ysi beads (GE Healthcare) were reconstituted to 100 mg/mL in deioniozed water, and then further diluted in deionized water to give a suspension containing 0.25 mg/10 μl water. Unlabeled 49b and other benzofuran probes were dissolved in DMSO to give a final stock concentration of 15 mM.
For the saturation-binding assay, isotopic dilution of radiolabeled 49b with unlabeled 49b was performed. ^3H-49b was added to 500 uM of unlabeled 49b to a final concentration of 50 μCi/mL ^3H-49b. The probe solution was then serially diluted in PBS to give six solutions giving 6.6, 13.1, 26.3, 52.5, 105, or 210 uM in the final assay well. Each concentration of the probe solution was incubated with 12 μg beta-amyloid 1-42 oligomer (20% biotin) or 1-40 (20% biotin) fibrils in a total volume of 90 μl. Assays were incubated at room temp for 2 hrs before addition of 10 μL YSi-streptavidin (0.25 mg) SPA bead. Assays were set-up in triplicate in 96-well NBS plates (Costar). Assays were incubated overnight and counted the following morning. […] The specific activities of the four probes were different, however the level of activity was the same at the concentrations where the probes were tested. For this assay, 130 nM of ^3H-49b, 90 nM ^3H-cimetidine, 14 nM ^3H-caffeine, and 6 nM ^3H-AZT were tested for direct binding to 12 ug of beta-amyloid-42 oligomer (20% biotin). Assay conditions were the same as described in saturation binding assay. […]
Data analyses were performed using Sigma Plot or GraphPad Prism® version 4. Curves were fitted using non-linear regression. KD values and IC50 values were estimated from the binding curves.
For the competition binding assay between tritium-labeled 49b and various unlabeled benzofuran analogs, assays contained 130 nM ^3H-49b and 50 uM of each of the unlabeled benzofuran analogs. As controls, 10 uM and 50 uM of unlabeled 49b were included in the assays.

Experiment [3] deals with beta-amyloid 1-40 monomers (Homo sapiens, UniProt P05067). Kind of experiment: Ex vivo fluorescent binding assay, monomers on naive rat brain sections. The settings on record: data not shown. Here is the method:
(§1) Fresh-frozen tissue sections of Sprauge-Dawley naïve rat brain (Taconic) 10 microns in thickness were fixed with 10% formalin in PBS. Each section of the rat brain was then embedded in paraffin, an optional step that increases the shelf life of the sample. Pre-formed soluble oligomers (100 μM), fibrils (100 μM), or monomers were applied onto tissues, and the slides incubated in a humidified chamber for two hours at 37° C. The slides were washed with PBS three times, then incubated with blocking buffer consisting of 10% normal goat serum in 3% BSA in PBS. To verify the presence of beta-amyloid, 100 μL of a 1/250th dilution of anti-beta-amyloid antibody, 6E10 (Signet Laboratories) was applied onto the tissues. The slides were incubated for 1.5 hours at room temperature or for 45 mins at 37° C. 1 mM stock solutions of 49b and Thioflavin T were prepared in 50% ethanol. The probes were diluted to 50 μM in blocking buffer. […] Microscopic examination and imaging was performed using a Leica wide-field fluorescence microscope using filter cube A (band pass 340-380 nm with a 400 nm dichroic mirror and a long pass 400 nm suppression filter) for 49b, cube E4 (band pass 436 nm with 455 dichroic mirror and a long pass 470 nm suppression filter) for Thioflavin T, and TX2 (band pass 520-600 nm with 595 nm dichroic mirror and 645/75 band pass suppression filter) for 6E10 immunostaining.

Experiment [4] concerns the target beta-amyloid 1-42 monomers (Homo sapiens, UniProt P05067). Described as above. The settings on record: data not shown. Here is the method:
as §1

Experiment [5] relates to beta-amyloid in PDAPP mouse brain sections. Kind of experiment: Histochemical staining on PDAPP transgenic mouse brain sections. The class given is binding. The procedure:
3-month old and 24-month old PDAPP mouse brains were obtained from Eli Lilly (Indianapolis, Ind.). Fresh frozen 30 micron sections of the brains were fixed in 10% formalin. For 49b, or Thioflavin S staining, 1 mM stock solutions of 49b and Thioflavin S were prepared in 50% ethanol. The probes were diluted to 25 μM in 50% ethanol, and then applied onto the PDAPP brain sections. The slides were incubated in a humid chamber at room temperature for 1 hr. The slides were washed three times with PBS and mounting medium (Molecular Probes) was added. The slides were incubated at least 4-6 hours before imaging. For the carbonate pre-treatment of the brain sections, formalin-fixed sections were incubated with 100 μL of carbonate buffer containing 0.025 M sodium chloride and 0.1 M sodium carbonate for 45 mins at 37° C. The slides were washed three times with PBS, then 49b or Thioflavin S were applied on the slides as described above. Microscopic examination and imaging was performed using a Leica wide-field fluorescence microscope using filter cube A for 49b and cube E4 for Thioflavin S. Co-staining of the probes with 6E10 anti-beta-amyloid antibody in the PDAPP brain sections was described in the ex vivo assay using naïve rats.

“Also recorded” adds a separate entry of the source.

T1 sequence (P05067 672-713 limits assumed): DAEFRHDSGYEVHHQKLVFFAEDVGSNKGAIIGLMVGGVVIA
Chain of beta-amyloid 1-42 monomers (P05067 672-713 limits assumed): as above
Chain of beta-amyloid 1-40 monomers (P05067 672-711 limits assumed): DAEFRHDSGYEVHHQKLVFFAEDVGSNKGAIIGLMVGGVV

Consider `O=Cc1ccc(-c2oc3ccccc3c2CO)o1` [Compound 49b, 2-(2-formyl-5-furanyl)-3-hydroxymethyl benzofuran], for which the Kd in experiment [1] (SPA saturation binding of 3H-49b, isotopic dilution with unlabeled 49b) turned out to be 50 µM. The Bmax in experiment [1] (SPA saturation binding, oligomers) is listed as 60-80 nmol/mg beta-amyloid. In experiment [1] (from Bmax, oligomers), the “molar ratio probe : beta-amyloid” value is reported as 1 probe: 3-4 beta-amyloid. Also, at 50 µM the inhibition in experiment [2] was 61%. Also, the “staining of beta-amyloid 1-40 monomers” value in experiment [3] was “did not stain”. Further, in experiment [4], the “staining of beta-amyloid 1-42 monomers” value is “did not stain”. The “staining of brain sections” value is “punctuate staining pattern that co-localized with beta-amyloid immunoreactivity; also recorded: primarily found in the hippocampus and co-localized with Thioflavin S staining” in experiment [5] (24-month old PDAPP mice, 25 μM probe); “No staining was observed” in experiment [5] (young (3-month old) PDAPP mice). Also, in experiment [5] (24-month old PDAPP, carbonate extraction buffer to remove soluble material), the “staining of carbonate pre-treated brain sections” value was “did not stain”.

In general, Kd refers to the constant that tells how readily two partners part at equilibrium. A high value points to a looser complex. By inhibition is commonly meant how much of the control response was suppressed. Read a low inhibition as a weak effect.

Source of the values: patent US7727511B2, “Agents for imaging soluble a-beta” (priority 2003, dated 2010).
